Values quoted from earlier work, collected in US7785629B2, “Bicalutamide-adsorbates, process for preparing same, and pharmaceutical compositions thereof” (Helm AG, priority 2005, dated 2010).

Settings: water and aqueous buffers at various pH values

In the case of CC(O)(CS(=O)(=O)c1ccc(F)cc1)C(=O)Nc1ccc(C#N)c(C(F)(F)F)c1 (stereo not shown) [Bicalutamide, N-[4′-cyano-3′-trifluoromethyl-phenyl]-3-[4″-fluorophenylsulfonyl]-2-hydroxy-2-methyl-propionamide], the Solubility is listed as “sparingly soluble”.
